Consider 21 molecules from patent US20020187514A1 (priority 1999, published 2002).

Counter-ions that a name gives are not always drawn.

Assay [1] concerns the target Adenosine Transport (cs + es). Nature of the assay: Adenosine Transport (cs + es) (Human); [3H]-Adenosine. In kind it is biochemical. Particulars: reference compound, QA/QC; read-out: Ref Kj.
The next assay has as its target Oxytocin. It is filed as binding. Particulars: read-out: Ref Kj.
The target of the next assay is T1, Thromboxane A2 (Homo sapiens, UniProt P21731).
T1 construct: from human cell lines; endogenous in cells
Briefly: Thromboxane A2 (Human); [3H]SQ 29,548. It is filed as binding. Particulars: reference compound, QA/QC; read-out: Ref Kj.

The target of a further assay is T2, Sigma 1 (Cavia porcellus, UniProt Q60492).
T2 construct: Fresh guinea pig whole brain was obtained following decapitation; from tissue; host or cells: guinea pig whole brain membranes
Nature of the assay: Sigma 1; [3H]-(+)-Pentazocine. Particulars: reference compound, QA/QC; read-out: Ref Kj. It is filed as binding, guinea pig.

Assay [2] deals with T3, Monoamine Oxidase A, Peripheral (Rattus norvegicus, UniProt P21396).
T3 construct: no other source notation after assay name denotes animal cell or animal tissue source; from tissue
Briefly: biochemical. The conditions noted are these: reference compound, QA/QC; read-out: Ref Kj.

In assay [3] the target is Somatostatin, Non-selective. Briefly: Somatostatin, Non-selective; [125]-Somatostatin-14 (Tyr11). Particulars: reference compound, QA/QC; read-out: Ref Kj. In kind it is binding.
For the next assay, the target named is T4, Elastase (Homo sapiens, UniProt P08246).
T4 construct: from human cell lines; endogenous in cells
Briefly: Elastase (Human); substrate MeO-Suc-Ala-Ala-Pro-Val-pNA. It is filed as biochemical. Particulars: reference compound, QA/QC; read-out: Ref Kj.

In the next assay the target is Serotonin, 5HT3 (Mus musculus, UniProt P23979). Nature of the assay: biochemical. It is filed as binding. Particulars: radioligand, assay parameter; read-out: KD of the 5HT3 receptor for the radioligand.
The target in a further assay is Dopamine Transporter (Cavia porcellus, UniProt H0WCX4). Briefly: biochemical. In kind it is binding, Guinea Pig. Particulars: read-out: Kd for the receptor.
Assay [4] has as its target Choline Acetyltransferase. Nature of the assay: Choline Acetyltransferase; substrate [14C]Acetyl Coenzyme. It is filed as biochemical. Particulars: reference compound, QA/QC; read-out: Ref Kj.
The target of assay [5] is Thyrotropin Releasing Hormone, TRH. Briefly: Thyrotropin Releasing Hormone, TRH; [3H]-(3MeHis2)TRH. It is filed as binding. The conditions noted are these: reference compound, QA/QC; read-out: Ref Kj.
In the next assay the target is Glutamate, MK-801 Site. Nature of the assay: Glutamate, MK-801 Site; [3H]MK-801. It is filed as binding. The conditions noted are these: reference compound, QA/QC; read-out: Ref Kj.
The target of assay [6] is Glutamate, NMDA, Phencyclidine Site. Briefly: Glutamate, NMDA, Phencyclidine Site; [3H]TCP. In kind it is binding. The conditions noted are these: reference compound, QA/QC; read-out: Ref Kj.
The next assay deals with Vasopressin, V1A (Homo sapiens, UniProt P37288). Briefly: Vasopressin, V1A (Human); [125I]-Via Antagonist. The conditions noted are these: read-out: Ref Kj. In kind it is binding.
Assay [7] deals with Protein Tyrosine Phosphatase, PTP-Cell. Nature of the assay: Protein Tyrosine Phosphatase, PTP-Cell (Human); substrate pNPP. It is filed as biochemical. The conditions noted are these: read-out: Ref Kj.
In assay [8] the target is Protein Tyrosine Phosphatase, PTP-CD45 (Homo sapiens, UniProt P08575). Nature of the assay: Protein Tyrosine Phosphatase, PTP-CD45 (Human); substrate pNPP. It is filed as biochemical. Particulars: read-out: Ref Kj.
The target of assay [9] is Protein Phosphatase, PP2B (Calcineurin). Briefly: Protein Phosphatase, PP2B (Calcineurin); substrate pNPP. In kind it is biochemical. The conditions noted are these: read-out: Ref Kj.
Assay [10] addresses T5, Protein Tyrosine Phosphatase, PTP-LAR-D1 (Homo sapiens, UniProt P10586).
T5 construct: PTP-LAR-D1
Nature of the assay: Protein Tyrosine Phosphatase, PTP-LAR-D1 (Human); substrate pNPP. In kind it is biochemical. The conditions noted are these: read-out: Ref Kj.

Assay [11] has as its target Protein Tyrosine Phosphatase, PTP-B. Briefly: Protein Tyrosine Phosphatase, PTP-B (Human); substrate pNPP. In kind it is biochemical. Particulars: read-out: Ref Kj.
The target of the next assay is Angiotensin II, AT2. It is filed as binding. Particulars: read-out: Ref Kj.
In assay [12] the target is Cholecystokinin, CCK1 (CCKA). Nature of the assay: Cholecystokinin, CCK1 (CCKA); [125I]CCK-8. It is filed as binding. The conditions noted are these: read-out: Ref Kj.
Assay [13] concerns the target Cholecystokinin, CCK2 (CCKB). Nature of the assay: Cholecystokinin, CCK2 (CCKB); [125I]CCK-8. It is filed as binding. Particulars: read-out: Ref Kj.
The target of assay [14] is Protein Phosphatase, PP2A (Homo sapiens, UniProt P67775). Briefly: Protein Phosphatase, PP2A (Human); substrate DiFMUP. The conditions noted are these: reference compound, QA/QC; read-out: Ref Kj. In kind it is biochemical.
For assay [15], the target named is Potassium Channel, Ca2+ Act., VS. Nature of the assay: Potassium Channel, Ca2+ Act., VS; [125I]Charybdotoxin. It is filed as binding. The conditions noted are these: reference compound, QA/QC; read-out: Ref Kj.
In the next assay the target is Neurokinin, NK1. It is filed as binding. Particulars: read-out: Ref Kj.
In assay [16] the target is Vasoactive Intestine Peptide, Non-selective. It is filed as binding. Particulars: read-out: Ref Kj.
A further assay concerns the target Calcium Channel, Type N. In kind it is binding. The conditions noted are these: read-out: Ref Kj.

T2 sequence (Q60492 whole entry): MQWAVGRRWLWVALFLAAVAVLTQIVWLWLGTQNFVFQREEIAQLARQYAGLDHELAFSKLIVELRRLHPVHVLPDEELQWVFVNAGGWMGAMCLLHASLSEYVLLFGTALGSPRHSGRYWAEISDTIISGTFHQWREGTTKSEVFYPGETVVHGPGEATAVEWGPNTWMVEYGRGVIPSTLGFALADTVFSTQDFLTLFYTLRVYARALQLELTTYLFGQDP
T1 sequence (P21731 whole entry): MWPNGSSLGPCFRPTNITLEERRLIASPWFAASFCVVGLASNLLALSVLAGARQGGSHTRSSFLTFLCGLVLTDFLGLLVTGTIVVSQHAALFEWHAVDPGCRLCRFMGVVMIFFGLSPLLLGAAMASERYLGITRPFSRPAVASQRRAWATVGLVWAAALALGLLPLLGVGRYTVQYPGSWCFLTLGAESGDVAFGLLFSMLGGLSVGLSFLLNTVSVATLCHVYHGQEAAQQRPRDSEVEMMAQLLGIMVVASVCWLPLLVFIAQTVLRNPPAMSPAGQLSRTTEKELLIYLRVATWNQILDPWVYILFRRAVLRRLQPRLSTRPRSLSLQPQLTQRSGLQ
T4 sequence (P08246 30-267): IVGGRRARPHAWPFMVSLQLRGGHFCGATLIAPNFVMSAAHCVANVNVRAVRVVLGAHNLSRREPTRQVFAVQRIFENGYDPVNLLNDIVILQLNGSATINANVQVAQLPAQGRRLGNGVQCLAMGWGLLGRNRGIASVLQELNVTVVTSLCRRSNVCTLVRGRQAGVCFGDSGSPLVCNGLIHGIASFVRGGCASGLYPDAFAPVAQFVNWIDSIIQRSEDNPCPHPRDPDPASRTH
Serotonin, 5HT3, sequence (P23979 24-489): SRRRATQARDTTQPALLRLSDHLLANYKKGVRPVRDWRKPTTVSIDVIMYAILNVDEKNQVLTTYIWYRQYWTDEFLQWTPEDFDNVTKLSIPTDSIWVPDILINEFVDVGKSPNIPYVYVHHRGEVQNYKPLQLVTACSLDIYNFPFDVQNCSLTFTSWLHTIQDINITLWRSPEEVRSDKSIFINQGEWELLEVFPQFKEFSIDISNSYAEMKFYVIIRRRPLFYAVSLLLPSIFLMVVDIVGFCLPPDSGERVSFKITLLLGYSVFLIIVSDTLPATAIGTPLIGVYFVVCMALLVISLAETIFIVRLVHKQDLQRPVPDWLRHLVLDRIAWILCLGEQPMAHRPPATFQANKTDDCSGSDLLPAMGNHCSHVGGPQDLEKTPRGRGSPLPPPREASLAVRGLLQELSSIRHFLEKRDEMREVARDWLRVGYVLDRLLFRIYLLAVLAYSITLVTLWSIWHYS
Vasopressin, V1A, sequence (P37288 whole entry): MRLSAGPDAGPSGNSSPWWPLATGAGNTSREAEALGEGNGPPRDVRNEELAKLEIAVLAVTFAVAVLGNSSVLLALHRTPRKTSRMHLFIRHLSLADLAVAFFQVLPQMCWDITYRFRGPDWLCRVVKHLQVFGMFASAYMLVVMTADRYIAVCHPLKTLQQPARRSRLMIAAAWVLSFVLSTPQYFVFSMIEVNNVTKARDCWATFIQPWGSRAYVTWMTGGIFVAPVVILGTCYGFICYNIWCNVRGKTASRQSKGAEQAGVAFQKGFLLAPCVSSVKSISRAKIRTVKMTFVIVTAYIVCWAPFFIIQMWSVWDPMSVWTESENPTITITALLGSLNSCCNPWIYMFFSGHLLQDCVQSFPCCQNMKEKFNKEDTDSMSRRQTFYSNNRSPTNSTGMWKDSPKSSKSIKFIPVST
T5 sequence (P10586 1352-1607): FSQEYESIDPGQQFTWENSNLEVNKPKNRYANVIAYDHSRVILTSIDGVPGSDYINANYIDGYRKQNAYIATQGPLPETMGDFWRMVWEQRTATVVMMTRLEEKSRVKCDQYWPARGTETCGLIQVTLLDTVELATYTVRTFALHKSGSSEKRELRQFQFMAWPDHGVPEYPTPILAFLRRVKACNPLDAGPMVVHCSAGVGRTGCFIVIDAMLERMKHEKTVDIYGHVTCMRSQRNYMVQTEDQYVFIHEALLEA
Dopamine Transporter, sequence (H0WCX4 1-619): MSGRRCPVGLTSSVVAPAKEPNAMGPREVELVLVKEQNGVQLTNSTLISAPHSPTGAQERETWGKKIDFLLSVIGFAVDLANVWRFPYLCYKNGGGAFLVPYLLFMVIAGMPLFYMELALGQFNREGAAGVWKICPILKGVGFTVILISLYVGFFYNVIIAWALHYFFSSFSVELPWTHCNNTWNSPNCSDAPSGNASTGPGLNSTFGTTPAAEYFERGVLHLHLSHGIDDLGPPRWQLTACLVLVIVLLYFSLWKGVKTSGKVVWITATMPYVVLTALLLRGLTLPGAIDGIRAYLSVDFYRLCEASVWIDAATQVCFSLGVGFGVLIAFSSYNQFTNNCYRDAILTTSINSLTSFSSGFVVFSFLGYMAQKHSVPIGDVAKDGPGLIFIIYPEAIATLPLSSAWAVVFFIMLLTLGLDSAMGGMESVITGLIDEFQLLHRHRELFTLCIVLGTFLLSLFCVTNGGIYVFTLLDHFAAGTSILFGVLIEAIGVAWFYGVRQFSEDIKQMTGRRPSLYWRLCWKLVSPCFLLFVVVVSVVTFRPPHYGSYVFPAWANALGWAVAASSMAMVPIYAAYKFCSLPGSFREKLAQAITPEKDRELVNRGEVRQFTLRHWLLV
Protein Tyrosine Phosphatase, PTP-CD45, sequence (P08575 26-1306): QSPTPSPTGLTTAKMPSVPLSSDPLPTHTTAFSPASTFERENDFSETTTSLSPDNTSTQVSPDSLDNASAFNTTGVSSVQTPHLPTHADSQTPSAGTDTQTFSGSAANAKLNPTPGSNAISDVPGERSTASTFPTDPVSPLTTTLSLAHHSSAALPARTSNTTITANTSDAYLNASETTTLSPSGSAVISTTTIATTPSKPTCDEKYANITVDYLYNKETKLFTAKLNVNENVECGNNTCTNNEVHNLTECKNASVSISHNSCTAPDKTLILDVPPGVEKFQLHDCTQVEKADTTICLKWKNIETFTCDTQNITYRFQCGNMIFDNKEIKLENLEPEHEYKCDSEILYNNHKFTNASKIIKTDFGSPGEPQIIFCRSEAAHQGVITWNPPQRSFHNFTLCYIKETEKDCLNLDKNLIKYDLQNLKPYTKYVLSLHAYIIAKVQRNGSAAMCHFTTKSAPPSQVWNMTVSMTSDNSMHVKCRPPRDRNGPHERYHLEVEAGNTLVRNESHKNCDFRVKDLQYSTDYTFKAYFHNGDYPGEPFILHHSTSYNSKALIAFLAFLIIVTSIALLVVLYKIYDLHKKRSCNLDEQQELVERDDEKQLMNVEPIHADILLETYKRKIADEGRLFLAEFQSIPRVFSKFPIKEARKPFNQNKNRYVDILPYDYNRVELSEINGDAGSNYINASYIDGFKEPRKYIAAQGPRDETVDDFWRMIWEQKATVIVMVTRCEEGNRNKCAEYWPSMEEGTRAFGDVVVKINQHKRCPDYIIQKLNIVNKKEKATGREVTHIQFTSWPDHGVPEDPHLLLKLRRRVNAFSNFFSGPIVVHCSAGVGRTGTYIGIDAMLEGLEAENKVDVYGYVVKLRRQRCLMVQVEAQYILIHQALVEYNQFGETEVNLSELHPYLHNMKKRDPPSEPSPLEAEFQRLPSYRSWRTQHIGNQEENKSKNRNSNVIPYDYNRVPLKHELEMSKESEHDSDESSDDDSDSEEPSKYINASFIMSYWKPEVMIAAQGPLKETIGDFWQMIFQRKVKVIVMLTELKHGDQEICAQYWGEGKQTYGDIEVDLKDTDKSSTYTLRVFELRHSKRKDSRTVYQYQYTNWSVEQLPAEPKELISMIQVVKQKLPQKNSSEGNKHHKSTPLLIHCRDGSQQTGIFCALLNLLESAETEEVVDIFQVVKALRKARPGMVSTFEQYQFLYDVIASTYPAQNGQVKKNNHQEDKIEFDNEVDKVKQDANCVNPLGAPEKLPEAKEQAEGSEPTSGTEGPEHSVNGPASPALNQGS
T3 sequence (P21396 whole entry, looked up): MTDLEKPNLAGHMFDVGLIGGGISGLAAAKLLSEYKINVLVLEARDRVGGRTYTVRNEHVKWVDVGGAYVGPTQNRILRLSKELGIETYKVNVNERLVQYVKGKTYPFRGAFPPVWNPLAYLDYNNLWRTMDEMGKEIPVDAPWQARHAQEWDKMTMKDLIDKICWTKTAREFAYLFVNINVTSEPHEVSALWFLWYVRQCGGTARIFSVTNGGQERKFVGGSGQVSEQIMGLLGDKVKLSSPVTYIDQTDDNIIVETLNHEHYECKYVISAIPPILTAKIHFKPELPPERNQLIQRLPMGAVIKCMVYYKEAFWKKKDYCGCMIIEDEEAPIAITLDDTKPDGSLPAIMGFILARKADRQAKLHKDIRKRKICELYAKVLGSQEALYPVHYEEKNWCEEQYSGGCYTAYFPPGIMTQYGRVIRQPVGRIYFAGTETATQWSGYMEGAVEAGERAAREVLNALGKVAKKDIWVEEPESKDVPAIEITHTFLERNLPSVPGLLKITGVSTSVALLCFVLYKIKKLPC
Protein Phosphatase, PP2A, sequence (P67775 whole entry): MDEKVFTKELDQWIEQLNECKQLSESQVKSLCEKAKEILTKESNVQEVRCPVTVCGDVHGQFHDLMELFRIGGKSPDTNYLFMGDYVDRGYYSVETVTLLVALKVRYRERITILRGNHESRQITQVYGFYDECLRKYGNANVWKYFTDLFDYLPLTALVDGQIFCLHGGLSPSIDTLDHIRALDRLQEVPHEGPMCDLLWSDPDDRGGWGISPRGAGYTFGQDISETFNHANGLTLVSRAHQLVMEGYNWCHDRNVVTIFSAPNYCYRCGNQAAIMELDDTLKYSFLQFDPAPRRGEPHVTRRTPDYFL

Take `O=[N+]([O-])c1ccc(CSc2ncnc3c2ncn3[C@@H]2O[C@H](CO)[C@@H](O)[C@H]2O)cc1` [NBTI]: the Ki in [1] was 0.331 nM.

As for `CC[C@H](C)[C@@H]1NC(=O)[C@H](Cc2ccc(O)cc2)NC(=O)[C@@H](N)CSSC[C@@H](C(=O)N2CCC[C@H]2C(=O)N[C@@H](CC(C)C)C(=O)NCC(N)=O)NC(=O)[C@H](CC(N)=O)NC(=O)[C@H](CCC(N)=O)NC1=O` [Oxytocin], the Ki at Oxytocin turned out to be […].

Take `CCCCC[C@@H](O)/C=C/[C@H]1C[C@H]2C[C@@H]([C@@H]1C/C=C\CCCC(=O)O)C2(C)C` [Pinane-thromboxane A2]: the Ki at Thromboxane A2 was 30.3 nM.

Turning to `CCCN1CCC[C@H](c2cccc(O)c2)C1` [R(+)-3-PPP HCl], on Sigma 1, the Ki is 1.27 nM.

With `NCCNC(=O)c1ncsc1-c1cccc(F)c1` [Ro 41-1049 HCl], the Ki in [2] came to 1.08 nM.

Regarding `C[C@H](N)C(=O)NCC(=O)N[C@H]1CSSC[C@@H](C(=O)O)NC(=O)[C@H](CO)NC(=O)[C@H]([C@@H](C)O)NC(=O)[C@H](Cc2ccccc2)NC(=O)[C@H]([C@@H](C)O)NC(=O)[C@H](CCCCN)NC(=O)[C@H](Cc2c[nH]c3ccccc23)NC(=O)[C@H](Cc2ccccc2)NC(=O)[C@H](Cc2ccccc2)NC(=O)[C@H](CC(N)=O)NC(=O)[C@H](CCCCN)NC1=O` [Somatostatin], in assay [3], the Ki was 0.768 nM.

For the molecule `C[C@H]1[C@H](C)CC[C@]2(C(=O)O)CC[C@]3(C)C(=CC[C@@H]4[C@@]5(C)CC[C@H](O)C(C)(C)[C@@H]5CC[C@]43C)[C@H]12` [Ursolic Acid], the Ki at Elastase turned out to be 2320 nM.

For the molecule `Cc1[nH]cnc1CCC(=O)c1cn(C)c2ccccc12` [[^3H]-GR65630], on Serotonin, 5HT3, the Kd turned out to be 0.35 nM.

As to `COC(=O)[C@H]1[C@@H](c2ccc(F)cc2)C[C@@H]2CC[C@H]1N2C` [[^3H]-WIN 35-428], on Dopamine Transporter, the equilibrium dissociation constant (Kd) worked out at 28 nM.

For the molecule `C[N+](C)(C)CCC(=O)c1ccc2ccccc2c1` [beta-NETA], in assay [4], the Ki came out at 425 nM.

Turning to (3MeHis2) TRH, the Ki in [5] amounted to 175 nM.

As to (+)-MK-801 HMaleate, the Ki amounted to 2.33 nM at Glutamate, MK-801 Site and 8.96 nM in assay [6].

With (Phe)(Me)2A6,8,L9AVP, the Ki at Vasopressin, V1A was 0.128 nM.

For the molecule Ammonium Molybdate, the Ki in [7] amounted to 41.3 nM; in assay [8], 30.9 nM; in assay [9] it was 90500 nM; in assay [10] it was 117 nM; in assay [11] it was 313 nM.

Turning to Angiotensin II (Human), on Angiotensin II, AT2, the Ki came to 0.578 nM.

As for CCK-8 (sulfated), the results for the Ki in [12] and in [13] were 0.0228 nM and 0.479 nM, respectively.

Calyculin: in [14], the Ki is 0.722 nM.

Charybdotoxin: the Ki in assay [15] worked out at 0.204 nM.

Take Substance P: the Ki at Neurokinin, NK1 is 13 nM.

With VIP, in assay [16], the Ki is 1.9 nM.

For w-Conotoxin GVIA, the Ki on Calcium Channel, Type N worked out at 0.0124 nM.
